Values quoted from earlier work, collected in patent publication US20150005255A1, “COSMETIC COMPOSITION, FORMULATION IN GEL-CREAM AND ITS USE” (EMS S.A., priority 2013, published 2015).

Experiments:
[1] = tested on: lysosomal enzymes; conditions: in skin care products
[2] = tested on: localized lipodystrophy

Row | Substance | reduction of lysosomal activity [1] | volume of observed areas with cellulite ([2]; formula of Xantalgosil C applied twice daily for one month, 25 volunteers) | activation of adipocyte lipolysis ([2]; in vivo)
1 | Escin | up to 30% |  | 
2 | acefylline methylsilanol mannuronate [Xantalgosil C] |  | reduction of volume in observed areas | outstanding action
